According to patent US20090054328A1, “Reagents and Methods for Modulating Gene Expression Related to Hypertension” (The Board of Trustees of the University of Illinois, priority 2005, published 2009):

Key:
SHR = assay: Systolic blood pressure (tail-cuff) in SHR, drug given continuously for 3 weeks by osmotic pump; format: in vivo, rat; conditions: continuous 3 weeks
Protocol: The importance of regulating MLCK expression by Ras signaling in vivo was further investigated by treating SHR with U0126 continuously for 3 weeks. U0126 is a specific inhibitor MEK (Favata et al., 1998J. Biol. Chem. 273: 18623-18632), an upstream regulator of ERK in the Ras signaling pathway (Chien & Hoshijima, 2002, Id.). […] In these experiments, Systolic blood pressure (SBP) was measured using tail-cuff sphygmomanometry (IITC Incorporated/Life Sciences Institute, Woodland Hills Calif.). Drugs were delivered via an osmotic pump (DURECT Corporation, Cupertino, Calif.) implanted subcutaneously in the shoulder. The pumps (having a 2 mL capacity at a delivery rate of 2.45 μL/hour) were filled with 13.5 mM U0126 (BIOMOL Research Laboratories, Plymouth Meeting, Pa.) dissolved in 50% DMSO or vehicle alone. Three weeks later, rats were sacrificed and aortas were removed. Some vessels were processed for histology, while other tissue was immediately placed in ice-cold acetone containing 10% trichloroacetic acid (TCA) and 10 mM dithiothreitol (DTT). Endothelial cells were removed by gently rubbing the inside of the vessels with a cell lifter and connective tissue was removed by dissection. The cleaned vessels were then frozen on dry ice and stored at −80° C. for biochemical analysis.
Another experiment was conducted to determine if inhibiting Ras signaling could decrease blood pressure in SHR.

WKY rats = conditions: age-matched WKY rats, U0126 3 weeks; returned to baseline within 2 weeks of treatment
From the text: The importance of regulating MLCK expression by Ras signaling in vivo was further investigated by treating SHR with U0126 continuously for 3 weeks. U0126 is a specific inhibitor MEK (Favata et al., 1998J. Biol. Chem. 273: 18623-18632), an upstream regulator of ERK in the Ras signaling pathway (Chien & Hoshijima, 2002, Id.). Rats that were 8 weeks old at the start of treatment were studied because blood pressure increases and blood vessels become thicker between 8 and 12 weeks of age (Yamori, 1984, Id). In these experiments, Systolic blood pressure (SBP) was measured using tail-cuff sphygmomanometry (IITC Incorporated/Life Sciences Institute, Woodland Hills Calif.). Drugs were delivered via an osmotic pump (DURECT Corporation, Cupertino, Calif.) implanted subcutaneously in the shoulder. The pumps (having a 2 mL capacity at a delivery rate of 2.45 μL/hour) were filled with 13.5 mM U0126 (BIOMOL Research Laboratories, Plymouth Meeting, Pa.) dissolved in 50% DMSO or vehicle alone. Three weeks later, rats were sacrificed and aortas were removed. Some vessels were processed for histology, while other tissue was immediately placed in ice-cold acetone containing 10% trichloroacetic acid (TCA) and 10 mM dithiothreitol (DTT). Endothelial cells were removed by gently rubbing the inside of the vessels with a cell lifter and connective tissue was removed by dissection. […]

[1] = tested on: ERK-P, MLCK expression and MLC-P
Protocol: Cells or pieces of blood vessels were extracted in buffer containing 9 M urea, 10 mM DTT and 20 mM Tris, pH 8.0. Protein concentrations were measured using the Bradford Protein Assay (BioRad, Richmond, Calif.) and equivalent amounts of protein were subjected to SDS-PAGE or urea-glycerol PAGE, Proteins separated by SDS-PAGE were transferred to nitrocellulose and probed with an antibody to MLCK (de Lanerolle et al., 1981, Proc. Natl. Acad. Sci. 78: 4738-4742), the broad specificity C4 antibody to actin (Lessard, 1988, Cell. Motil. Cytoskeleton. 10: 349-362), antibodies to Rho A or phosphorylated MPasel (Santa Cruz Biotechnology, Santa Cruz, Calif.) or an antibody to phosphorylated ERK½ (Cell Signaling Technology, Beverly, Mass.). Urea-glycerol PAGE was used to separate the unphosphorylated and phosphorylated forms of MLC20, which was then transferred to nitrocellulose and probed with an antibody to MLC20, wherein the stoichiometry of phosphorylation (mol PO4/mol MLC20) was calculated as previously described (Obara et al., 1989, Pflugers. Arch. 414: 134-138). Ail immunoreactive bands were visualized using enhanced chemiluminescence (Amersham Pharmacia Biotech, Piscataway, N.J.) and quantified densitometrically.
(§1) The importance of regulating MLCK expression by Ras signaling in vivo was further investigated by treating SHR with U0126 continuously for 3 weeks. U0126 is a specific inhibitor MEK (Favata et al., 1998J. Biol. Chem. 273: 18623-18632), an upstream regulator of ERK in the Ras signaling pathway (Chien & Hoshijima, 2002, Id.). Rats that were 8 weeks old at the start of treatment were studied because blood pressure increases and blood vessels become thicker between 8 and 12 weeks of age (Yamori, 1984, Id). In these experiments, Systolic blood pressure (SBP) was measured using tail-cuff sphygmomanometry (IITC Incorporated/Life Sciences Institute, Woodland Hills Calif.). Drugs were delivered via an osmotic pump (DURECT Corporation, Cupertino, Calif.) implanted subcutaneously in the shoulder. The pumps (having a 2 mL capacity at a delivery rate of 2.45 μL/hour) were filled with 13.5 mM U0126 (BIOMOL Research Laboratories, Plymouth Meeting, Pa.) dissolved in 50% DMSO or vehicle alone. Three weeks later, rats were sacrificed and aortas were removed. Some vessels were processed for histology, while other tissue was immediately placed in ice-cold acetone containing 10% trichloroacetic acid (TCA) and 10 mM dithiothreitol (DTT). Endothelial cells were removed by gently rubbing the inside of the vessels with a cell lifter and connective tissue was removed by dissection. The cleaned vessels were then frozen on dry ice and stored at −80° C. for biochemical analysis.
ERK-P, MLCK expression and MLC-P were assayed in U0126 SHR as described above.

[2] = tested on: medial smooth muscle layer of aortas and mesenteric arteries
From the text: as §1
Blood vessels were also assessed histologically. […] Cross-sections (5 microns thick) were cut, deparaffinized and stained with Gomort's Trichrome. Nuclei were visualized with Weigert's iron hematoxylin. The thickness of the medial layer was quantified using NIH ImageJ 1.32 software (National Institutes of Health, Bethesda, […].).

MLCK expression in VSMC = assay: Blocking Ras signaling in vitro in VSMC: MLCK expression and MLC-P by Western blot; format: cell-based, rat
Protocol: In view of the results obtained in Example 3 above, the effect of modulating SRF expression or activity on MLCK expression was assayed. To inhibit SRF activity, an adenovirus (AdSRF-S) lacking exons 4 and 5 was used to express a truncated, dominant negative form of SRF in cells (Davis et al., 2002, Id). Control cells were infected with a virus expressing GFP (AdGFP) at the same multiplicity of infection. In these experiments, VSMC were explanted from aortas of 4 to 7 weeks old SHR or WKY rats as previously described (Ross, 1971, J. Cell. Biol. 50: 172-186) and cultured in Dulbeccos's modified Eagles's medium (DMEM) with 10% fetal bovine serum (FBS). VSMC from WKY rats grown in 6-well plates (90-100% confluent) were infected for 2 hours with either an adenovirus that express a short form of SRF (AdSRF-S) (Davis et al., 2002, Id) or a control virus that expresses GFP (AdGFP). The viruses were washed out and the cells were grown as described above for 48 hours. VSMC were harvested and cell lysates were subjected to western blot analyses.
Dominant negative Ras decreased MLCK mRNA expression in VSMC from SHR (FIG. 4C, inset). To investigate downstream events of Ras signaling, VSMC from SHR were treated with antisense oligonucleotides to ERK, a known member of the Ras signaling pathway. […]

[3] = U0126-treated SHR compared to control

For `N#CC(=C(/N)Sc1ccccc1N)/C(C#N)=C(\N)Sc1ccccc1N` [U0126], the “systolic blood pressure at the end of the 3-week treatment period” value (SHR; SHR 8 weeks old at start, 13.5 mM U0126 in osmotic pump, vehicle 208.9±4.7) was 150.4±4.1 mmHg, the “systolic blood pressure at the end of the 3-week treatment period” value (SHR; SHR 16 weeks old at start, osmotic pump, vehicle 221.6) was 181.4±0.89 mmHg and the “SBP in normotensive WKY rats” value (WKY rats) was “transient decrease”. The “RhoA expression in aortas” value ([1]; SHR after U0126 treatment) was “No significant differences”, the “phosphorylated myosin phosphorylase-1 (MPasel-P) in aortas” value ([1]; SHR after U0126 treatment) was “No significant differences” and the “ERK phosphorylation (ERK-P) in blood vessels” value [1, 3] was “decreased”. The “MLC phosphorylation (MLC-P) in blood vessels” value [1, 3] was “decreased”, the “MLCK expression in blood vessels” value [1, 3] was “decreased” and the “medial smooth muscle layer in aortas and mesenteric arteries” value ([2]; SHR receiving U0126 compared to controls) was “thinner”. For the same molecule, the “total medial area of aortas” value ([2]; SHR, 3 weeks U0126, NIH ImageJ, vehicle 117.8±3.69) was 66.4±2.79 relative units, the “total medial area of mesenteric arteries” value ([2]; SHR, 3 weeks U0126, mean from two animals, vehicle 26.88) was 16.0 and the “MLCK expression in VSMC” value (MLCK expression in VSMC) was “decreased”.
